Experimental data from the NIST ThermoML archive (doi:10.1007/s10765-009-0667-2).

Test: xn = mol fraction of the nth substance listed
Details: 101 kPa, Liquid; for mass density: Vibrating tube method

c1ccccc1 [benzene] + C1CCCCCCC1
x1 = 1
Details | mass density [kg/m3] | viscosity [mPa·s]
308.15 K | 862.9 | 0.5272
313.15 K | 857.7 | 0.4942

c1ccccc1 [benzene] + CCCCCCC
Details | mass density, 308.15 K [kg/m3] | mass density, 313.15 K [kg/m3] | viscosity, 308.15 K [mPa·s] | viscosity, 313.15 K [mPa·s]
x1 = 0.1099 | 683.6 | 679.4 | 0.3518 | 0.3342
x1 = 0.2052 | 695.3 | 691.1 | 0.3593 | 0.3356
x1 = 0.2896 | 706.6 | 702.4 | 0.3562 | 0.3387
x1 = 0.4212 | 726.5 | 722.1 | 0.3632 | 0.345
x1 = 0.5078 | 740.9 | 736.4 | 0.3724 | 0.3534
x1 = 0.6087 | 760 | 755.4 | 0.3925 | 0.3667
x1 = 0.7263 | 785.5 | 780.8 | 0.4094 | 0.3879
x1 = 0.7936 | 801.9 | 797.1 | 0.4262 | 0.4031
x1 = 0.8987 | 830.6 | 825.6 | 0.4734 | 0.4408
x1 = 1 | 862.9 | 857.7 | 0.5272 | 0.4942

c1ccccc1 [benzene] + CCc1ccccc1
x1 = 1
Details | mass density [kg/m3] | viscosity [mPa·s]
308.15 K | 862.9 | 0.5272
313.15 K | 857.7 | 0.4942

c1ccccc1 [benzene] + Cc1ccccc1
Details | mass density, 308.15 K [kg/m3] | mass density, 313.15 K [kg/m3] | viscosity, 308.15 K [mPa·s] | viscosity, 313.15 K [mPa·s]
x1 = 0.0403 | 853.1 | 848.6 | 0.4943 | 0.468
x1 = 0.1393 | 853.7 | 849.1 | 0.4998 | 0.4681
x1 = 0.2551 | 854.5 | 849.9 | 0.4968 | 0.4693
x1 = 0.3116 | 855 | 850.3 | 0.4968 | 0.469
x1 = 0.3863 | 855.7 | 850.9 | 0.4977 | 0.4705
x1 = 0.5033 | 856.6 | 851.8 | 0.503 | 0.4747
x1 = 0.6139 | 857.8 | 852.9 | 0.5078 | 0.4785
x1 = 0.7301 | 859.1 | 854.1 | 0.5166 | 0.4813
x1 = 0.8551 | 860.8 | 855.7 | 0.5227 | 0.487
x1 = 1 | 862.9 | 857.7 | 0.5272 | 0.4942

C1CCCCCCC1 [cyclooctane] + CCCCCCC
Details | mass density, 308.15 K [kg/m3] | mass density, 313.15 K [kg/m3] | viscosity, 308.15 K [mPa·s] | viscosity, 313.15 K [mPa·s]
x2 = 0 | 823.6 | 819.7 | 1.803 | 1.636
x2 = 0.0938 | 807.7 | 803.8 | 1.405 | 1.288
x2 = 0.1897 | 793 | 789.1 | 1.125 | 1.044
x2 = 0.2896 | 777.5 | 773.6 | 0.9246 | 0.8605
x2 = 0.3979 | 760.8 | 756.8 | 0.7613 | 0.7127
x2 = 0.4949 | 746.1 | 742.2 | 0.6608 | 0.6207
x2 = 0.5964 | 730.9 | 726.9 | 0.5725 | 0.5389
x2 = 0.6919 | 716.7 | 712.7 | 0.5028 | 0.4754
x2 = 0.7795 | 703.6 | 699.7 | 0.4487 | 0.4256
x2 = 0.8934 | 686.9 | 682.8 | 0.4002 | 0.3754

C1CCCCCCC1 [cyclooctane] + CCc1ccccc1
Details | mass density, 308.15 K [kg/m3] | mass density, 313.15 K [kg/m3] | viscosity, 308.15 K [mPa·s] | viscosity, 313.15 K [mPa·s]
x2 = 0 | 823.6 | 819.7 | 1.803 | 1.636
x2 = 0.0907 | 824.8 | 820.9 | 1.487 | 1.356
x2 = 0.2033 | 827.1 | 823.2 | 1.206 | 1.11
x2 = 0.3072 | 829.5 | 825.6 | 1.022 | 0.9578
x2 = 0.3701 | 831.2 | 827.2 | 0.9433 | 0.8765
x2 = 0.4761 | 834.2 | 830.2 | 0.8369 | 0.7835
x2 = 0.5798 | 837.5 | 833.4 | 0.7568 | 0.7089
x2 = 0.7008 | 841.7 | 837.6 | 0.6736 | 0.6403
x2 = 0.7922 | 845.1 | 840.9 | 0.6351 | 0.5979
x2 = 0.8908 | 849 | 844.8 | 0.5958 | 0.5629

C1CCCCCCC1 [cyclooctane] + Cc1ccccc1
Details | mass density, 308.15 K [kg/m3] | mass density, 313.15 K [kg/m3] | viscosity, 308.15 K [mPa·s] | viscosity, 313.15 K [mPa·s]
x2 = 0 | 823.6 | 819.7 | 1.803 | 1.636
x2 = 0.0997 | 824.6 | 820.7 | 1.443 | 1.326
x2 = 0.1951 | 826 | 822.1 | 1.198 | 1.112
x2 = 0.3032 | 828.1 | 824.1 | 1.003 | 0.9333
x2 = 0.3904 | 830 | 826 | 0.8748 | 0.8203
x2 = 0.4868 | 832.5 | 828.5 | 0.7834 | 0.701
x2 = 0.5898 | 835.6 | 831.4 | 0.6981 | 0.6579
x2 = 0.6919 | 839.2 | 834.9 | 0.6266 | 0.5912
x2 = 0.8003 | 843.4 | 839.1 | 0.5673 | 0.5364
x2 = 0.888 | 847.3 | 842.9 | 0.5361 | 0.5033

C1CCCCCCC1 [cyclooctane] + c1ccccc1
Details | mass density, 308.15 K [kg/m3] | mass density, 313.15 K [kg/m3] | viscosity, 308.15 K [mPa·s] | viscosity, 313.15 K [mPa·s]
x2 = 0 | 823.6 | 819.7 | 1.803 | 1.636
x2 = 0.1004 | 824.9 | 821 | 1.494 | 1.368
x2 = 0.1826 | 826.4 | 822.4 | 1.294 | 1.193
x2 = 0.3035 | 829 | 824.9 | 1.072 | 0.993
x2 = 0.408 | 831.9 | 827.6 | 0.9222 | 0.859
x2 = 0.5122 | 835.2 | 830.9 | 0.8085 | 0.7548
x2 = 0.5243 | 835.7 | 831.4 | 0.7963 | 0.7437
x2 = 0.6891 | 842.7 | 838.1 | 0.6667 | 0.6274
x2 = 0.7904 | 848.1 | 843.3 | 0.6042 | 0.5677
x2 = 0.9001 | 855.1 | 850.1 | 0.5651 | 0.5263

CCc1ccccc1 [ethylbenzene] + C1CCCCCCC1
x1 = 1
Details | mass density [kg/m3] | viscosity [mPa·s]
308.15 K | 853.7 | 0.5652
313.15 K | 849.5 | 0.5294

CCc1ccccc1 [ethylbenzene] + CCCCCCC
Details | mass density, 308.15 K [kg/m3] | mass density, 313.15 K [kg/m3] | viscosity, 308.15 K [mPa·s] | viscosity, 313.15 K [mPa·s]
x2 = 0 | 853.7 | 849.5 | 0.5652 | 0.5294
x2 = 0.1034 | 831.5 | 827.4 | 0.5217 | 0.4945
x2 = 0.2048 | 810.6 | 806.5 | 0.4925 | 0.4631
x2 = 0.2931 | 793 | 788.8 | 0.4625 | 0.4393
x2 = 0.3754 | 777.2 | 773 | 0.44 | 0.419
x2 = 0.488 | 756.3 | 752.2 | 0.4195 | 0.3986
x2 = 0.5929 | 737.7 | 733.6 | 0.4061 | 0.3807
x2 = 0.6899 | 720.9 | 716.7 | 0.3859 | 0.3669
x2 = 0.8051 | 701.8 | 697.7 | 0.369 | 0.3516
x2 = 0.8979 | 687.1 | 683 | 0.3659 | 0.3425

CCc1ccccc1 [ethylbenzene] + Cc1ccccc1
Details | mass density, 308.15 K [kg/m3] | mass density, 318.15 K [kg/m3] | viscosity, 308.15 K [mPa·s] | viscosity, 313.15 K [mPa·s]
x2 = 0 | 853.7 | 849.5 | 0.5652 | 0.5294
x2 = 0.0424 | 853.7 | 849.5 | 0.5587 | 0.5306
x2 = 0.128 | 853.7 | 849.4 | 0.5587 | 0.525
x2 = 0.2164 | 853.6 | 849.3 | 0.5471 | 0.5185
x2 = 0.2928 | 853.6 | 849.3 | 0.5408 | 0.5124
x2 = 0.393 | 853.5 | 849.2 | 0.5379 | 0.5186
x2 = 0.4922 | 853.4 | 849.1 | 0.5349 | 0.5022
x2 = 0.5716 | 853.4 | 849 | 0.5243 | 0.4968
x2 = 0.7107 | 853.2 | 848.8 | 0.5125 | 0.4853
x2 = 0.8425 | 853 | 848.6 | 0.5108 | 0.4781

CCc1ccccc1 [ethylbenzene] + c1ccccc1
Details | mass density, 308.15 K [kg/m3] | mass density, 313.15 K [kg/m3] | viscosity, 308.15 K [mPa·s] | viscosity, 313.15 K [mPa·s]
x2 = 0 | 853.7 | 849.5 | 0.5652 | 0.5294
x2 = 0.0877 | 854.1 | 849.8 | 0.5584 | 0.5282
x2 = 0.1855 | 854.6 | 850.2 | 0.5563 | 0.5234
x2 = 0.295 | 855.2 | 850.8 | 0.5472 | 0.5172
x2 = 0.4137 | 856 | 851.5 | 0.5392 | 0.5096
x2 = 0.498 | 856.6 | 852.1 | 0.5382 | 0.508
x2 = 0.5965 | 857.5 | 852.8 | 0.5382 | 0.5039
x2 = 0.7108 | 858.7 | 853.9 | 0.5308 | 0.4996
x2 = 0.7904 | 859.7 | 854.8 | 0.5263 | 0.4954
x2 = 0.8983 | 861.2 | 856.2 | 0.5309 | 0.4949

CCCCCCC [heptane] + C1CCCCCCC1
x1 = 1
Details | mass density [kg/m3] | viscosity [mPa·s]
308.15 K | 671.3 | 0.3497
313.15 K | 667.1 | 0.3329

CCCCCCC [heptane] + CCc1ccccc1
x1 = 1
Details | mass density [kg/m3] | viscosity [mPa·s]
308.15 K | 671.3 | 0.3497
313.15 K | 667.1 | 0.3329

CCCCCCC [heptane] + Cc1ccccc1
x1 = 1
Details | mass density [kg/m3] | viscosity [mPa·s]
308.15 K | 671.3 | 0.3497
313.15 K | 667.1 | 0.3329

CCCCCCC [heptane] + c1ccccc1
x2 = 0
Details | mass density [kg/m3] | viscosity [mPa·s]
308.15 K | 671.3 | 0.3497
313.15 K | 667.1 | 0.3329

Cc1ccccc1 [toluene] + C1CCCCCCC1
x1 = 1
Details | mass density [kg/m3] | viscosity [mPa·s]
308.15 K | 852.8 | 0.494
313.15 K | 848.3 | 0.4676

Cc1ccccc1 [toluene] + CCCCCCC
Details | mass density, 308.15 K [kg/m3] | mass density, 313.15 K [kg/m3] | viscosity, 308.15 K [mPa·s] | viscosity, 313.15 K [mPa·s]
x2 = 0 | 852.8 | 848.3 | 0.494 | 0.4676
x2 = 0.0901 | 830.9 | 826.5 | 0.4631 | 0.4392
x2 = 0.1949 | 807 | 802.6 | 0.4406 | 0.4129
x2 = 0.299 | 786.6 | 782.2 | 0.415 | 0.3944
x2 = 0.3959 | 765.9 | 761.6 | 0.3967 | 0.377
x2 = 0.4836 | 749.6 | 745.4 | 0.3861 | 0.3668
x2 = 0.5809 | 732.8 | 728.6 | 0.3811 | 0.3562
x2 = 0.6809 | 716.6 | 712.5 | 0.3666 | 0.3488
x2 = 0.792 | 699.8 | 695.6 | 0.3575 | 0.341
x2 = 0.8884 | 686.1 | 682 | 0.3605 | 0.3367

Cc1ccccc1 [toluene] + CCc1ccccc1
x1 = 1
Details | mass density [kg/m3] | viscosity [mPa·s]
308.15 K | 852.8 | 0.494
313.15 K | – | 0.4755
318.15 K | 848.3 | –
